In US20260132132A1, “3A,4,5,6-TETRAHYDRO-1 H-PYRAZOLO[3,4-C]PYRIDIN-7(7AH)-ONE DERIVATIVES AS FACTOR XIIA INHIBITORS” (KALVISTA PHARMACEUTICALS LIMITED, priority 2022, published 2026):

How the values were obtained:
[1] = target: T1, Human Factor XIIa (hFXIIa) (Homo sapiens, UniProt P00748); experiment: Determination of Human Factor XIIa (hFXIIa) inhibition, fluorogenic substrate IC50 assay; format: biochemical; conditions: fluorogenic substrate H-DPro-Phe-Arg-AFC at Km, 25° C., read-out: Human FXIIa IC50
T1 construct: purchased Enzyme Research Laboratories
T1 sequence (P00748 373-615 limits assumed): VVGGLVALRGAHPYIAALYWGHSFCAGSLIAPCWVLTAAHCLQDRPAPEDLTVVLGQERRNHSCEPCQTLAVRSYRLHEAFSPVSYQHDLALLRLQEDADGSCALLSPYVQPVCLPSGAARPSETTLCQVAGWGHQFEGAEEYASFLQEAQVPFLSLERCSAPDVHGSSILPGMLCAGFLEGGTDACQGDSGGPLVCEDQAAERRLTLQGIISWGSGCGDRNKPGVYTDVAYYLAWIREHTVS
T1 sequence (P00748 20-372 partner limits assumed): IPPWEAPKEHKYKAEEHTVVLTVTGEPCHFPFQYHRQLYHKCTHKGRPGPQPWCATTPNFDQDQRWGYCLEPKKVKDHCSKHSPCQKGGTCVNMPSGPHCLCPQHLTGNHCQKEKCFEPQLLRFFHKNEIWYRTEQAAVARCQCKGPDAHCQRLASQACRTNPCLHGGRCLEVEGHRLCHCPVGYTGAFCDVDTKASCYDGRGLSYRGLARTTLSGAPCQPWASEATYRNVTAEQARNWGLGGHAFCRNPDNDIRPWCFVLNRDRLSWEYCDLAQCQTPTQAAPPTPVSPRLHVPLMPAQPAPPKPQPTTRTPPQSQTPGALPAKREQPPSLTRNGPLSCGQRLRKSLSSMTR
Description: Determination of Human Factor XIIa (hFXIIa) inhibition
The Km for the cleavage of the substrate by hFXIIa was determined by standard transformation of the Michaelis-Menten equation, with subsequent inhibition assays performed at substrate Km concentration.

FXa = FXa (Homo sapiens, UniProt P00742); experiment: Related protease inhibition: FXa, fluorogenic substrate; format: biochemical; conditions: fluorogenic substrate at Km, 25° C.; H1-H3 = % activity at 40 μM
FXa, sequence (P00742 235-488 limits assumed): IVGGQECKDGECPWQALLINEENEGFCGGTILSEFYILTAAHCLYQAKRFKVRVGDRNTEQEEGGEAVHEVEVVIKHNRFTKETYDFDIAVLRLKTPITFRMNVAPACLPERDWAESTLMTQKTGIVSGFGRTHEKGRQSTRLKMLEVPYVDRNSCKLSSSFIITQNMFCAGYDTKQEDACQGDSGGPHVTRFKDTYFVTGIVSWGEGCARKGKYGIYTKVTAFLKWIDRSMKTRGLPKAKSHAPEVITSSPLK
FXa, sequence (P00742 41-179 partner limits assumed): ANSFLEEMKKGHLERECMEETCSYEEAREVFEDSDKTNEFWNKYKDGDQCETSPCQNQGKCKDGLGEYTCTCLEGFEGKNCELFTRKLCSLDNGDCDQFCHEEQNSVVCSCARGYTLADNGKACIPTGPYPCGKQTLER
Description: Human serine protease enzyme Plasma Kallikrein, KLK1, FXa, Plasmin, Thrombin and Trypsin were assayed for enzymatic activity using an appropriate fluorogenic substrate at Km concentration, FXIa at fixed substrate concentration of 100 μM and various concentrations of the test compound.

Structure (SMILES) | IC50 [1] [nM] | IC50 (FXa) [nM]
CN1CCc2ccc(N3CCc4c(C(=O)NO)nn(-c5cccc(Cl)c5)c4C3=O)cc2C1=O [Example 1347, 1-(3-chlorophenyl)-N-hydroxy-6-(2-methyl-1-oxo-1,2,3,4-tetrahydroisoquinolin-7-yl)-7-oxo-4,5,6,7-tetrahydro-1H-pyrazolo[3,4-c]pyridine-3-carboxamide] | 300 to 1000 | 3000 to 10000
CCNC(=O)c1nn(-c2cccc(Cl)c2)c2c1CCN(c1ccc3c(c1)C(=O)N(CC)CCO3)C2=O [Example 1371, 1-(3-chlorophenyl)-N-ethyl-6-(4-ethyl-5-oxo-2,3,4,5-tetrahydrobenzo[f][1,4]oxazepin-7-yl)-7-oxo-4,5,6,7-tetrahydro-1H-pyrazolo[3,4-c]pyridine-3-carboxamide] | 100 to 300 | 10000 to 40000
CN1CCc2ccc(N3CCc4c(C(=O)NCC5CCCO5)nn(-c5cccc(Cl)c5)c4C3=O)cc2C1 (stereo not shown) [Example 1025, 1-(3-chlorophenyl)-6-(2-methyl-1,2,3,4-tetrahydroisoquinolin-7-yl)-7-oxo-N-((tetrahydrofuran-2-yl)methyl)-4,5,6,7-tetrahydro-1H-pyrazolo[3,4-c]pyridine-3-carboxamide] | 300 to 1000 | 3000 to 10000
Cc1ccnnc1CNC(=O)c1nn(-c2cccc(Cl)c2)c2c1CCN(c1ccc3c(c1)C(=O)N(C)CC3)C2=O [Example 1310, 1-(3-chlorophenyl)-6-(2-methyl-1-oxo-1,2,3,4-tetrahydroisoquinolin-7-yl)-N-((4-methylpyridazin-3-yl)methyl)-7-oxo-4,5,6,7-tetrahydro-1H-pyrazolo[3,4-c]pyridine-3-carboxamide] | 300 to 1000 | 10000 to 40000
O=C(NCC1CC1)c1nn(-c2cccc(Cl)c2)c2c1CCN(c1ccc3c(c1)C(=O)N(CCO)CC3)C2=O [Example 1216, 1-(3-chlorophenyl)-N-(cyclopropylmethyl)-6-(2-(2-hydroxyethyl)-1-oxo-1,2,3,4-tetrahydroisoquinolin-7-yl)-7-oxo-4,5,6,7-tetrahydro-1H-pyrazolo[3,4-c]pyridine-3-carboxamide] | 100 to 300 | > 40000
COc1cccnc1CNC(=O)c1nn(-c2cccc(Cl)c2)c2c1CCN(c1cc3c(nn1)CCN(CCO)C3)C2=O [Example 1229, 1-(3-chlorophenyl)-6-(6-(2-hydroxyethyl)-5,6,7,8-tetrahydropyrido[4,3-c]pyridazin-3-yl)-N-((3-methoxypyridin-2-yl)methyl)-7-oxo-4,5,6,7-tetrahydro-1H-pyrazolo[3,4-c]pyridine-3-carboxamide] | 100 to 300 | 10000 to 40000
CN1CCc2ccc(N3CCc4c(C(=O)NC5CCC5)nn(-c5cccc(Cl)c5)c4C3=O)cc2C1=O [Example 1346, 1-(3-chlorophenyl)-N-cyclobutyl-6-(2-methyl-1-oxo-1,2,3,4-tetrahydroisoquinolin-7-yl)-7-oxo-4,5,6,7-tetrahydro-1H-pyrazolo[3,4-c]pyridine-3-carboxamide] | 300 to 1000 | > 40000
O=C(NCc1cncc(F)c1)c1nn(-c2cccc(Cl)c2)c2c1CCN(c1ccc3c(c1)CN(CCO)CC3)C2=O [Example 1137, 1-(3-chlorophenyl)-N-((5-fluoropyridin-3-yl)methyl)-6-(2-(2-hydroxyethyl)-1,2,3,4-tetrahydroisoquinolin-7-yl)-7-oxo-4,5,6,7-tetrahydro-1H-pyrazolo[3,4-c]pyridine-3-carboxamide] | 10 to 100 | 10000 to 40000
CN1CCc2ccc(N3CCc4c(C(=O)NCC5CC5)nn(-c5cc(Cl)cc(C#N)c5)c4C3=O)cc2C1=O [Example 2013, 1-(3-chloro-5-cyanophenyl)-N-(cyclopropylmethyl)-6-(2-methyl-1-oxo-1,2,3,4-tetrahydroisoquinolin-7-yl)-7-oxo-4,5,6,7-tetrahydro-1H-pyrazolo[3,4-c]pyridine-3-carboxamide] | 3000 to 10000 | > 40000
Cc1ccc(CNC(=O)c2nn(-c3cccc(Cl)c3)c3c2CCN(c2ccc4c(c2)CN(CCO)CC4)C3=O)cn1 [Example 1147, 1-(3-chlorophenyl)-6-(2-(2-hydroxyethyl)-1,2,3,4-tetrahydroisoquinolin-7-yl)-N-((6-methylpyridin-3-yl)methyl)-7-oxo-4,5,6,7-tetrahydro-1H-pyrazolo[3,4-c]pyridine-3-carboxamide] | 10 to 100 | 10000 to 40000
Cc1ccnc(C)c1CNC(=O)c1nn(-c2cccc(Cl)c2)c2c1CCN(c1ccc3c(c1)C(=O)N(CCO)CC3)C2=O [Example 1326, 1-(3-chlorophenyl)-N-((2,4-dimethylpyridin-3-yl)methyl)-6-(2-(2-hydroxyethyl)-1-oxo-1,2,3,4-tetrahydroisoquinolin-7-yl)-7-oxo-4,5,6,7-tetrahydro-1H-pyrazolo[3,4-c]pyridine-3-carboxamide] | 100 to 300 | > 40000
COc1ccc(CNC(=O)c2nn(-c3cccc(Cl)c3)c3c2CCN(c2ccc4c(c2)CN(CCO)CC4)C3=O)cn1 [Example 1138, 1-(3-chlorophenyl)-6-(2-(2-hydroxyethyl)-1,2,3,4-tetrahydroisoquinolin-7-yl)-N-((6-methoxypyridin-3-yl)methyl)-7-oxo-4,5,6,7-tetrahydro-1H-pyrazolo[3,4-c]pyridine-3-carboxamide] | 10 to 100 | 3000 to 10000

Results, then the molecule that gave them:

IC50 [1] [nM] | IC50 (FXa) [nM] | Structure (SMILES)
10 to 100 | 10000 to 40000 | O=C(NCc1cnccc1Cl)c1nn(-c2cccc(Cl)c2)c2c1CCN(c1ccc3c(c1)CN(CCO)CC3)C2=O [Example 1154, 1-(3-chlorophenyl)-N-((4-chloropyridin-3-yl)methyl)-6-(2-(2-hydroxyethyl)-1,2,3,4-tetrahydroisoquinolin-7-yl)-7-oxo-4,5,6,7-tetrahydro-1H-pyrazolo[3,4-c]pyridine-3-carboxamide]
100 to 300 | 1000 to 3000 | Cc1nc2c(C#N)nn(-c3cccc(Cl)c3)c2c(=O)n1-c1ccc2c(c1)CN(CCO)CC2 [Example 3012, 1-(3-chlorophenyl)-6-(2-(2-hydroxyethyl)-1,2,3,4-tetrahydroisoquinolin-7-yl)-5-methyl-7-oxo-6,7-dihydro-1H-pyrazolo[4,3-d]pyrimidine-3-carbonitrile]
300 to 1000 | 3000 to 10000 | CN1CCc2ccc(N3CCc4c(C(=O)NC5CCOCC5)nn(-c5cccc(Cl)c5)c4C3=O)cc2C1 [Example 1043, 1-(3-chlorophenyl)-6-(2-methyl-1,2,3,4-tetrahydroisoquinolin-7-yl)-7-oxo-N-(tetrahydro-2H-pyran-4-yl)-4,5,6,7-tetrahydro-1H-pyrazolo[3,4-c]pyridine-3-carboxamide]
300 to 1000 | > 40000 | Cc1nnc(CNC(=O)c2nn(-c3cccc(Cl)c3)c3c2CCN(c2ccc4c(c2)C(=O)N(C)CC4)C3=O)s1 [Example 1181, 1-(3-chlorophenyl)-N-((5-methyl-1,3,4-thiadiazol-2-yl)methyl)-6-(2-methyl-1-oxo-1,2,3,4-tetrahydroisoquinolin-7-yl)-7-oxo-4,5,6,7-tetrahydro-1H-pyrazolo[3,4-c]pyridine-3-carboxamide]
100 to 300 | > 40000 | CCN1CCc2c(F)cc(N3CCc4c(C(=O)NCC5CC5)nn(-c5cccc(Cl)c5)c4C3=O)cc2C1 [Example 1121, 1-(3-chlorophenyl)-N-(cyclopropylmethyl)-6-(2-ethyl-5-fluoro-1,2,3,4-tetrahydroisoquinolin-7-yl)-7-oxo-4,5,6,7-tetrahydro-1H-pyrazolo[3,4-c]pyridine-3-carboxamide]
300 to 1000 | > 4000 | Cc1cc(CNC(=O)c2nn(-c3cccc(Cl)c3)c3c2CCN(c2ccc4c(c2)C(=O)N(CC(=O)O)CC4)C3=O)n[nH]1 [Example 1332, 2-(7-(1-(3-chlorophenyl)-3-(((5-methyl-1H-pyrazol-3-yl)methyl)carbamoyl)-7-oxo-1,4,5,7-tetrahydro-6H-pyrazolo[3,4-c]pyridin-6-yl)-1-oxo-3,4-dihydroisoquinolin-2(1H)-yl)acetic acid]
10 to 100 | 3000 to 10000 | Cc1cc(CNC(=O)c2nn(-c3cccc(Cl)c3)c3c2CCN(c2ccc4c(c2)CN(CCO)CC4)C3=O)[nH]n1 [Example 1077, 1-(3-chlorophenyl)-6-(2-(2-hydroxyethyl)-1,2,3,4-tetrahydroisoquinolin-7-yl)-N-((3-methyl-1H-pyrazol-5-yl)methyl)-7-oxo-4,5,6,7-tetrahydro-1H-pyrazolo[3,4-c]pyridine-3-carboxamide]
3000 to 10000 | > 100000 | CCNC(=O)c1nn(-c2cccc(Cl)c2)c2c1CCN(c1cccc(CN3CCCCC3)c1)C2=O [Example 1011, 1-(3-chlorophenyl)-N-ethyl-7-oxo-6-(3-(piperidin-1-ylmethyl)phenyl)-4,5,6,7-tetrahydro-1H-pyrazolo[3,4-c]pyridine-3-carboxamide]
